Consider 6 compounds from patent US8563562B2, “Compounds having antiviral properties” (priority 2008, dated 2013).

Common to all, as to assay type: cell-based
Assay [1] relates to HIV variant E92Q/N155H integrase. Put plainly: PhenoScreen (Phenosense) assay, single-round luciferase pseudotyped HIV. The note with it: Human immunodeficiency virus 1, read-out: Activity, Phenosense assay, E92Q/N155H. From the text: (§1) Monogram Bioscience' PhenoScreen assay allows the evaluation of integrase inhibitors for activity against a variety of HIV variants. The assay uses virus generated from 2 DNA constructs; one containing the HIV LTR, gag and pol regions, as well as a luciferase reporter gene in place of the viral envelope genes, and a second DNA construct containing the amphotrophic murine leukemia virus (A-MLV) envelope gene required to pseudotype virions and render them capable of entry into a target cell. Viruses generated using these constructs by transfection into a producer cell line such as 293T are capable of one-round of infection only. Successful integration events are directly proportional to the levels of luciferase expression 48 h after infection.
(§2) The viral variants chosen by the present inventors to screen integration inhibitors consist of mutations within the viral integrase enzyme known to confer resistance to a number of known integration inhibitors published in the literature. In particular, the viral variants containing the Q148H/G140S double mutation in integrase, and the N155H/E92Q double mutation in integrase, represent two of the more common viruses identified to arise in patients that are failing treatment with Isentress (Raltegravir, MK-0518).

Assay [2] has as its system HIV variant Y143R integrase. The assay is described as above. The note with it: Human immunodeficiency virus 1, read-out: Activity, Phenosense assay, Y143R.
From the text: as §1, §2

The test system of assay [3] is HIV variant T661/S153Y integrase. The assay is described as above. The note with it: Human immunodeficiency virus 1, read-out: Activity, Phenosense assay, T661 S153Y.
From the text: as §1, §2

The subject of assay [4] is HIV variant G140S/Q148H integrase. The assay is described as above. The note with it: Human immunodeficiency virus 1, read-out: Activity, Phenosense assay, G140S Q148H.
From the text: as §1, §2

Assay [5] relates to HIV variant T125K/F121Y integrase. The description is as above. The note with it: Human immunodeficiency virus 1, read-out: Activity, Phenosense assay, T125K F121Y.
From the text: as §1, §2

Assay [6] deals with HIV WT integrase. Described as above. The note with it: Human immunodeficiency virus 1, read-out: Activity, Phenosense assay, WT.
From the text: as §1, §2

In assay [7] the test system is HIV-1 reporter virus, Q148K/G140A/E138A (QKGAEA) integrase. Briefly: Luciferase reporter virus infectivity assay in 293T cells. The note with it: Human immunodeficiency virus 1, HEK-293T, 48 h, read-out: Luciferase assay EC50, QKGAEA. From the text: (§3) Infectivity assays using reporter viruses derived from lentiviral vectors capable of a single round of infection were used to determine the activity (EC50) of compounds. The DNA used to generate viruses for infection was the full-length HIV-1 genome which had been envelope-deleted. In addition, a reporter gene (the firefly luciferase gene from Photinus pyralis) was cloned into the nef region of the HIV backbone for ease of assay readout. […]. Culture supernatants containing VSV-G pseudotyped virions were harvested 64 h post transfection, clarified by centrifugation to remove cell debris, and frozen at −70° C. until use.
(§4) HIV integrase was mutated within a shuttle vector (pGEM) containing the majority of the HIV-1 gag and pol sequence using site-directed mutagenesis to generate sequences that are known to confer resistance to published integrase inhibitors. These include but are not limited to mutations such as Q148H/G140S (in table #QHGS), N155H/E92Q (in table #NHEQ), F121Y/T124K (in table FYTK), Y143R (in table #Y143R) and the triple mutant Q148K/G140A/E138A. (in table#QKGAEA). The mutated integrase coding region within the shuttle vector was sequence verified, and then exchanged for the wild-type (WT) coding sequence in the reporter virus DNA backbone.
(§5) 293T cells were plated out at 12000 cells per well in CellView 96-well cell culture plates (Invitrogen) 16 h prior to compound addition. Compounds were preincubated with cells for 4 h at 37° C. prior to the addition of virus sufficient to generate approximately 10000 Luciferase light units (as measured by the Victor Wallace luminometer) upon assaying using the Bright-Glo™ reagent (Promega) according to the manufacturer's instructions at 48 h post infection.
(In general: Reporter assays use an easily measured gene product as a stand-in for the process of interest.)

The test system of assay [8] is HIV-1 reporter virus, N155H/E92Q (NHEQ) integrase. Described as above. The settings on record: Human immunodeficiency virus 1, HEK-293T, 48 h, read-out: Luciferase assay EC50, NHEQ.
From the text: as §3, §4, §5

The test system of assay [9] is HIV-1 reporter virus, Q148H/G140S (QHGS) integrase. Described as above. The note with it: Human immunodeficiency virus 1, HEK-293T, 48 h, read-out: Luciferase assay EC50, QHGS.
From the text: as §3, §4, §5

Assay [10] has as its system HIV-1 reporter virus, wild-type (WT) integrase. The assay is described as above. The settings on record: Human immunodeficiency virus 1, HEK-293T, 48 h, read-out: Luciferase assay EC50, WT.
From the text: as §3, §4, §5

Assay [11] has as its system HIV-1 reporter virus, F121Y/T124K (FYTK) integrase. Described as above. The note with it: Human immunodeficiency virus 1, HEK-293T, 48 h, read-out: Luciferase assay EC50, FYTK.
From the text: as §3, §4, §5

The subject of assay [12] is HIV-1 reporter virus, Y143R integrase. Described as above. The note with it: Human immunodeficiency virus 1, HEK-293T, 48 h, read-out: Luciferase assay EC50, Y143R.
From the text: as §3, §4, §5

Consider `O=c1c(O)c(-c2ncc(Cc3ccc(F)cc3)s2)nc2ccc(N3CCOCC3)cn12` [Example 41, 2-[5-(4-Fluoro-benzyl)-thiazol-2-yl]-3-hydroxy-7-morpholin-4-yl-pyrido[1,2-a]pyrimidin-4-one], for which the EC50 was 100 to 1000 nM in assay [1]; 1 to 100 nM in assay [2]; 1 to 100 nM in assay [3]; 100 to 1000 nM in assay [4]; 1 to 100 nM in [5]; 1 to 100 nM in assay [6]. In addition, the EC50 was more than 1000 nM in assay [7], 1 to 100 nM in assay [8], more than 1000 nM in assay [9] and 1 to 100 nM in assay [10].

Take `O=c1c(O)c(-c2ncc(Cc3ccc(F)cc3)[nH]2)nc2ccc(N3CCOCC3)cn12` [Example 45, 5-(4-Fluoro-benzyl)-2-(3-hydroxy-7-morpholin-4-yl-4-oxo-4H-pyrido[1,2-a]pyrimidin-2-yl)-1H-imidazol-1-ium chloride]: the EC50 in assay [7] was in the range of 100 to 1000 nM; in assay [8], 100 to 1000 nM; in [11] it was 100 to 1000 nM; in assay [9], 100 to 1000 nM; in [12], 100 to 1000 nM; in [10], 1 to 100 nM.

For `O=c1c(O)c(-c2ncc(Cc3ccc(F)cc3)s2)nc2c(N3CCCS3(=O)=O)cc(N3CCOCC3)cn12` [Example 105, 9-(1,1-Dioxo-1l6-isothiazolidin-2-yl)-2-[5-(4-fluoro-benzyl)-thiazol-2-yl]-3-hydroxy-7-morpholin-4-yl-pyrido[1,2-a]pyrimidin-4-one], the EC50 is 100 to 1000 nM in assay [7]; 1 to 100 nM in [8]; 1 to 100 nM in [11]; 100 to 1000 nM in assay [9]; 1 to 100 nM in [12]; 1 to 100 nM in [10].

`O=C1OCCN1c1cc(N2CCOCC2)cn2c(=O)c(O)c(-c3ncc(Cc4ccc(F)cc4)s3)nc12` [Example 103, 2-[5-(4-Fluoro-benzyl)-thiazol-2-yl]-3-hydroxy-7-morpholin-4-yl-9-(2-oxo-oxazolidin-3-yl)-pyrido[1,2-a]pyrimidin-4-one]: the EC50 was in the range of 100 to 1000 nM in [7]; 1 to 100 nM in assay [8]; 1 to 100 nM in assay [11]; 1 to 100 nM in assay [9]; 1 to 100 nM in assay [12]; 1 to 100 nM in assay [10].

In the case of `CN1CCN(c2cc(N3CCOCC3)cn3c(=O)c(O)c(-c4ncc(Cc5ccc(F)cc5)s4)nc23)S1(=O)=O` [Example 99, 2-[5-(4-Fluoro-benzyl)-thiazol-2-yl]-3-hydroxy-9-(5-methyl-1,1-dioxo-1l6-[1,2,5]thiadiazolidin-2-yl)-7-morpholin-4-yl-pyrido[1,2-a]pyrimidin-4-one], the EC50 in assay [7] lay within 100 to 1000 nM; in [8], 1 to 100 nM; in [11], 1 to 100 nM; in assay [9] it was 1 to 100 nM; in assay [12], 1 to 100 nM; in assay [10], 1 to 100 nM.

Consider `CN1CCN(c2cc(N3CCOCC3)cn3c(=O)c(O)c(-c4ncc(Cc5ccc(F)cc5)s4)nc23)C1=O` [Example 101, 2-[5-(4-Fluoro-benzyl)-thiazol-2-yl]-3-hydroxy-9-(3-methyl-2-oxo-imidazolidin-1-yl)-7-morpholin-4-yl-pyrido[1,2-a]pyrimidin-4-one], for which the EC50 fell in the range of 100 to 1000 nM in [7]; 1 to 100 nM in assay [8]; 1 to 100 nM in assay [11]; 1 to 100 nM in assay [9]; 1 to 100 nM in [12]; 1 to 100 nM in assay [10].
